Columns and labels:
[1] = target: T1, boron transporter (BOR1) BOR1-GFP fusion protein (Arabidopsis thaliana, UniProt Q8VYR7); assay: structural (thermal) stability of solubilized BOR1-GFP by fluorescence-based size exclusion chromatography (FSEC); conditions: for structural stability of solubilized BOR1-GFP after heating (RFU, FSEC): heated at 40° C. for 10 minutes, 1 wt % compound
T1 construct: made in house; host or cells: Saccharomyces cerevisiae FGY217
Procedure: The ability of PSAs or PSEs to stabilize the structure of boron transporter (BOR1) was measured in an aqueous solution. That is, the BOR1 protein solubilized in each amphipathic compound was denatured by heating, and then structural stability of BOR1 was measured using fluorescence-based size exclusion chromatography (FSEC).
Specifically, Arabidopsis thaliana-derived BOR1 was expressed in the form of a fusion protein having a GFP tag at the C-terminus in Saccharomyces cerevisiae FGY217 cells. The cells were grown in an URA-medium supplemented with 0.1% glucose. 2% galactose was added to the cell culture to induce protein expression and the cells were cultured at 20° C. for 18 hours (see Drew, D. et al., Nat. Protoc. 2008, 3, 784-798.). After culture, the cells were harvested and used to obtain the cell membranes (see Leung, J. et al., Protein Expr. Purif. 2010, 72, 139-146.). Membranes containing BOR1-GFP fusion proteins were diluted to a final total protein concentration of 2.8 mg/mL in PBS (pH7.4) supplemented with 1 wt % DDM, 1 wt % PSAs (PSA-C9, PSA-C10 or PSA-C11) or 1 wt % PSEs (PSE-C9, PSE-C11 or PSE-C13). The diluted samples were incubated at 4° C. for 1 hour with gentle shaking, and insoluble substances were removed by centrifugation at 14,000 g for 1 hour at 4° C. Supernatants containing the dissolved protein samples were incubated for 10 minutes at the specified temperature (35, 40, 45 or 50° C.), and strongly agglutinated proteins were removed by centrifugation at 14,000 g for 10 minutes at 4° C. 200 μL aliquots were taken from the supernatant and injected into a Superose 6 10/300 column equilibrated with 20 mM Tris-HCl (pH 7.5), 150 mM NaCl and 0.03% DDM. Each elution fraction was collected from a retention volume of 6.4 mL (i.e., after 6.4 mL of solution had passed), and added to a well of a clear bottom 96-well plate at a volume of 200 μL. GFP fluorescence generated in each fraction was measured using an excitation wavelength of 470 nm and an emission wavelength of 512 nm.

[2] = tested on: leucine transporter (LeuT); assay: LeuT stability, [3H]-Leu binding by scintillation proximity assay (SPA); assay type: biochemical, Aquifex aeolicus; conditions: room temperature
Procedure: The ability of PSAs, PSEs or TPSs (TPS-A/E/ELs) to stabilize leucine transporter (LeuT), a membrane protein, was measured. LeuT purified by DDM was mixed with a solution containing each amphipathic compound, and the mixture was incubated at room temperature for 12 days. The activity of LeuT proteins was measured by scintillation proximity assay (SPA) using a ligand ([^3H]-Leu), and the concentration of PSAs, PSEs, TPSs or DDM was (a) CMC+0.04 wt %, or (b) CMC+0.2 wt %.
Specifically, LeuT stability measurement was performed in the following manner. According to the results of Example 6, PSA-C10, PSA-C11, PSE-C9, PSE-C11, and PSE-C13 were selected as the amphipathic compounds of PSAs and PSEs except for PSA-C9, and wild type leucine transporter (LeuT) was purified from Aquifex aeolicus using TPS-As, TPS-Es and TPS-EL, according to the method described in G. Deckert et al. (Nature 1998, 392, 353-358.). E. coli C41 (DE3) was transformed with a pET16b plasmid containing a gene construct encoding C-terminal 8×His-tagged LeuT, and thus LeuT was expressed in the form of a fusion protein having 8×His tags at the C-terminus in the transformed E. coli C41 (the expression plasmid was provided by Dr. E. Gouaux, Vollum Institute, Portland, Oreg., USA). Briefly, bacterial membranes containing LeuT were treated with 1.0 wt % DDM, and proteins were bound to Ni^2+-NTA resin (Life Technologies, Denmark). LeuT bound to the resin was eluted using a buffer solution containing 20 mM Tris-HCl (pH 8.0), 1 mM NaCl, 199 mM KCl, 0.05% DDM and 300 mM imidazole. Next, about 1.5 mg/mL of protein stock was diluted 10-fold in an equivalent buffer supplemented with TPS-As, TPS-Es, TPS-ELs, PSAs/PSEs (PSA-C10, PSA-C11, PSE-C9, PSE-C11 and PSE-C13) or DDM (control group) to a final concentration of CMC+0.04 wt % or CMC+0.2 wt % without DDM and imidazole. The protein samples were stored at room temperature and centrifuged at designated times. Protein activity was determined by measuring the degree of binding to [^3H]-Leu using scintillation proximity assay (SPA) (M. Quick et al., Proc. Natl, Acad. Sci. U.S.A. 2007, 104, 3603-3608.). Briefly, SPA was performed with 5 μL of each protein sample dissolved in a buffer containing 450 mM NaCl and each test compound. The SPA reaction was performed in the presence of 20 nM [^3H]-Leu and copper chelate (His-Tag) YSi beads (both were purchased from PerkinElmer, Denmark). The degree of binding to [^3H]-Leu was measured using a MicroBeta liquid scintillation counter (PerkinElmer).

Row | Compound | state of solubilized BOR1-GFP after heating ([1]; 35° C. for 10 minutes) | state of solubilized BOR1-GFP after heating ([1]; 40 or 45° C. for 10 minutes) | structural stability of solubilized BOR1-GFP after heating (RFU, FSEC) [1] | maintenance of LeuT activity during 12 days of incubation ([2]; CMC+0.04 wt %) | maintenance of LeuT activity during 12 days of incubation ([2]; CMC+0.2 wt %) | LeuT transporter activity retained after 12 days of incubation ([2]; CMC+0.2 wt %, 12 days)
1 | CCCCCCCCCCCCO[C@@H]1O[C@H](CO)[C@@H](O[C@H]2O[C@H](CO)[C@@H](O)[C@H](O)[C@H]2O)[C@H](O)[C@H]1O [DDM, n-dodecyl-β-D-maltopyranoside, reference compound] | retained the original state thereof | complete denaturation/aggregation occurred | RFUs were relatively low due to denaturation after heating |  |  | 
2 | CCCCCCCCCCCC(CCCCCCCCCCC)CO[C@@H]1OC(CO[C@@H]2OC(CO)[C@@H](O)C(O)C2O)[C@@H](O[C@@H]2OC(CO)[C@@H](O)C(O)C2O)C(O[C@@H]2OC(CO)[C@@H](O)C(O)C2O)C1O[C@@H]1OC(CO)[C@@H](O)C(O)C1O (stereo partly shown) [PSA-C11] |  |  | remarkably improved as compared to DDM and PSA-C9 |  |  | 
3 | CCCCCCCCCCCOCC(COCCCCCCCCCCC)O[C@@H]1OC(CO[C@@H]2OC(CO)[C@@H](O)C(O)C2O)[C@@H](O[C@@H]2OC(CO)[C@@H](O)C(O)C2O)C(O[C@@H]2OC(CO)[C@@H](O)C(O)C2O)C1O[C@@H]1OC(CO)[C@@H](O)C(O)C1O (stereo partly shown) [PSE-C11] |  | maintained monodispersibility | greatly improved compared to DDM | did not show any appreciable decrease in protein activity | completely preserved | 100%
4 | CCCCCCCCCCCCCOCC(COCCCCCCCCCCCCC)O[C@@H]1OC(CO[C@@H]2OC(CO)[C@@H](O)C(O)C2O)[C@@H](O[C@@H]2OC(CO)[C@@H](O)C(O)C2O)C(O[C@@H]2OC(CO)[C@@H](O)C(O)C2O)C1O[C@@H]1OC(CO)[C@@H](O)C(O)C1O (stereo partly shown) [PSE-C13] |  |  | greatly improved compared to DDM | did not show any appreciable decrease in protein activity |  | 
5 | CCCCCCCCOCC(COCCCCCCCC)(COCCCCCCCC)CO[C@@H]1OC(CO[C@@H]2OC(CO)[C@@H](O)C(O)C2O)[C@@H](O[C@@H]2OC(CO)[C@@H](O)C(O)C2O)C(O[C@@H]2OC(CO)[C@@H](O)C(O)C2O)C1O[C@@H]1OC(CO)[C@@H](O)C(O)C1O (stereo partly shown) [TPS-E8] |  |  |  | remained intact | completely preserved | 
